Structures are written as SMILES.

The target of this test is Cholinesterase (Homo sapiens) (UniProt P06276). The test is described as follows: Inhibition of butylcholine esterase at 100 ug/mL.
Sequence of Cholinesterase (Homo sapiens) (P06276 whole entry): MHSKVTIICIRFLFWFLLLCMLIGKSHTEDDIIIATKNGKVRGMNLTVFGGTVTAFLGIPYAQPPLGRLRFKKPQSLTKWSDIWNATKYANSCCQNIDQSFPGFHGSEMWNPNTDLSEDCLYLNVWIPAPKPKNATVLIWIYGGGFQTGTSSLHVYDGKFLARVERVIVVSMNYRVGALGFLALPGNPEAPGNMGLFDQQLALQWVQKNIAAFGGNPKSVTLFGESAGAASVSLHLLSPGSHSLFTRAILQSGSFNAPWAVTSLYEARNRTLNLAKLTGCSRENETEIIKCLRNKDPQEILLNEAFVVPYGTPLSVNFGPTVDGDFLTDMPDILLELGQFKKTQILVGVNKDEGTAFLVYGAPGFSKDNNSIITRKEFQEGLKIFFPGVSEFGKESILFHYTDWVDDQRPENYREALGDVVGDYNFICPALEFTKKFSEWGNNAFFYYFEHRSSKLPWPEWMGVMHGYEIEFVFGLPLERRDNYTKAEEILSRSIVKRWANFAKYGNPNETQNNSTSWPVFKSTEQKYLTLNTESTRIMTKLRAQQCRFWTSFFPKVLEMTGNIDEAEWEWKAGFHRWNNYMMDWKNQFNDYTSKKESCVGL

Compound `CC(C)=CC(C(=O)O)/C(C)=C/CC/C(C)=C/CC[C@]1(C)CCc2cc(O)cc(C)c2O1` (some centres not stated) registered an inhibition of 80%.

`CC(C)=C[C@@H](O)C(=O)/C(C)=C/CC/C(C)=C/CC[C@]1(C)CCc2cc(O)cc(C)c2O1`: the inhibition came to 82.7%.

The record behind these values is ChEMBL document CHEMBL1158760, “Chromenes from the brown alga Sargassum siliquastrum” (J Nat Prod, 2005).
